Experimental data: US20240190828A1, “Small Molecule Inhibitors of PBRM1-BD2” (The Medical College of Wisconsin, Inc., priority 2021, published 2024)
Several values for one entry are separate records, joined by “and”; a condition that tells them apart may be missing. Equal entries are not always repeated. Where two headings read alike, the source gives them in different places.

What was measured:
PBRM1-BD2 [1] = molecular target: T1, PBRM1-BD2 (Homo sapiens (Human), UniProt Q86U86); assay: biochemical; type: binding; conditions: for PBRM1-BD2 ΔTm: DSF, 10 μM protein, 100 μM inhibitor, vs apoprotein
T1 sequence (Q86U86 177-287): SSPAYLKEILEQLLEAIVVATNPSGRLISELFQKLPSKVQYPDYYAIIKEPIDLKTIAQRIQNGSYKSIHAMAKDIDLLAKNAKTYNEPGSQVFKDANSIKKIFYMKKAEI
Description: DSF measures protein unfolding by monitoring the fluorescence of the SYPRO Orange dye as a function of temperature; positive thermal shifts indicate ligand binding induced stabilization of the protein.
(§1) Differential Scanning Fluorimetry (DSF). Bromodomain DSF Tm assays were performed using an Mx3005P (Stratagene) PCR detection system and low profile 96-well PCR plates (UltraFlux, Flat Top, SSI 3400-00S). […] The temperature was raised by 1° C./min from 25-95° C., and fluorescence readings were taken at each interval. Melting curves were analyzed using our online interactive fitting tool for thermofluor experiments (https://dsf-analysis.herokuapp.com/DSF-analysis) and plotted using GraphPad Prism.

ASH1L = ASH1L (Homo sapiens (Human), UniProt Q9NR48); assay: DSF selectivity profiling; type: binding
Description: as §1

BRD2-BD2 = BRD2-BD2 (Homo sapiens (Human), UniProt P25440); assay: DSF selectivity profiling; type: binding
BRD2-BD2, sequence (P25440 344-453): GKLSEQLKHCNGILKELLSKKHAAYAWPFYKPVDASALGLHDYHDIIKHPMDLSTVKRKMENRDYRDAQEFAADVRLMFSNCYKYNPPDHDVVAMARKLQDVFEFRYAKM
Description: as §1

BRD3-BD1 = BRD3-BD1 (Homo sapiens (Human), UniProt Q15059); assay: DSF selectivity profiling; type: binding
BRD3-BD1, sequence (Q15059 34-140): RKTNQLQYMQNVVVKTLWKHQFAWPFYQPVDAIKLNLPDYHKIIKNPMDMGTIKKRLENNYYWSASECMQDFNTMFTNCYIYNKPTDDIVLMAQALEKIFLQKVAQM
Description: as §1

BRD3-BD2 = BRD3-BD2 (Homo sapiens (Human), UniProt Q15059); assay: DSF selectivity profiling; type: binding
BRD3-BD2, sequence (Q15059 306-415): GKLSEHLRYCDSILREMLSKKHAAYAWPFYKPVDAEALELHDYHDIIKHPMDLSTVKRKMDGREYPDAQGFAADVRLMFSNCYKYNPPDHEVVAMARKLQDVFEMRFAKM
Description: as §1

BRD4-BD1 = BRD4-BD1 (Homo sapiens (Human), UniProt O60885); assay: DSF selectivity profiling; type: binding
Description: as §1

BRD4-BD2 = BRD4-BD2 (Homo sapiens (Human), UniProt O60885); assay: DSF selectivity profiling; type: binding
Description: as §1

BRD7 = BRD7 (Homo sapiens (Human), UniProt Q9NPI1); assay: DSF selectivity profiling; type: binding
BRD7, sequence (Q9NPI1 131-235): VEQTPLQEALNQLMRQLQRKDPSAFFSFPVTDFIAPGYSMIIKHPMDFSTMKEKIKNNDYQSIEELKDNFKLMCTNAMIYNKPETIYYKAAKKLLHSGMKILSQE
Description: as §1

BRDT-BD1 = BRDT-BD1 (Homo sapiens (Human), UniProt Q58F21); assay: DSF selectivity profiling; type: binding
Description: as §1

CECR2 = CECR2 (Homo sapiens (Human), UniProt Q9BXF3); assay: DSF selectivity profiling; type: binding
CECR2, sequence (Q9BXF3 434-538): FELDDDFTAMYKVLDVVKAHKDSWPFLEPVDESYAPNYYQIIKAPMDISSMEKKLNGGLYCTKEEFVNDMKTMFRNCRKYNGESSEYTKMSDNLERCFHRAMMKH
Description: as §1

CREBBP = CREBBP (Homo sapiens (Human), UniProt Q92793); assay: DSF selectivity profiling; type: binding
CREBBP, sequence (Q92793 1085-1192): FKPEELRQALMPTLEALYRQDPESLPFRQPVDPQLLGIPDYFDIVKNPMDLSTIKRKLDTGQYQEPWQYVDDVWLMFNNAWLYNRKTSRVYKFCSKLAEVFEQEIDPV
Description: as §1

PBRM1-BD1 = PBRM1-BD1 (Homo sapiens (Human), UniProt Q86U86); assay: DSF selectivity profiling; type: binding
PBRM1-BD1, sequence (Q86U86 41-151): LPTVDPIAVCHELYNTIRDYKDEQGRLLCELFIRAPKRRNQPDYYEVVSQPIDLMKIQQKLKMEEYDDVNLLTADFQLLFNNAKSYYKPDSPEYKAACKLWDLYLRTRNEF
Description: as §1

PBRM1-BD3 = PBRM1-BD3 (Homo sapiens (Human), UniProt Q86U86); assay: DSF selectivity profiling; type: binding
PBRM1-BD3, sequence (Q86U86 381-487): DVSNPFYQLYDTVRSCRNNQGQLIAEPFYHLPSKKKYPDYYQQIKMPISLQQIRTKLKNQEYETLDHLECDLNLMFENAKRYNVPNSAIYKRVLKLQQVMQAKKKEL
Description: as §1

PBRM1-BD4 = PBRM1-BD4 (Homo sapiens (Human), UniProt Q86U86); assay: DSF selectivity profiling; type: binding
PBRM1-BD4, sequence (Q86U86 518-625): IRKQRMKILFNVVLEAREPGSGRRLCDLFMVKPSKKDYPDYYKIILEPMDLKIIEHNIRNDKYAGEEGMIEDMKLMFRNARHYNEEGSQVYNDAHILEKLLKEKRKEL
Description: as §1

PBRM1-BD6 = PBRM1-BD6 (Homo sapiens (Human), UniProt Q86U86); assay: DSF selectivity profiling; type: binding
PBRM1-BD6, sequence (Q86U86 769-879): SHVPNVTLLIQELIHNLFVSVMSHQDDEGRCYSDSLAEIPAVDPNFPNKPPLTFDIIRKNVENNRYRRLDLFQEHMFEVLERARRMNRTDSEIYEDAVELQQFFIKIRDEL
Description: as §1

PCAF = PCAF (Homo sapiens (Human), UniProt Q92831); assay: DSF selectivity profiling; type: binding
PCAF, sequence (Q92831 723-827): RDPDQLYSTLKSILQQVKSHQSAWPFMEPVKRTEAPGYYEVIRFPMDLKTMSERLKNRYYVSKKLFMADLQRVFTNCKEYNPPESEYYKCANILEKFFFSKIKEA
Description: as §1

SMARCA2 = SMARCA2 (Homo sapiens (Human), UniProt P51531); assay: DSF selectivity profiling; type: binding
SMARCA2, sequence (P51531 1378-1506): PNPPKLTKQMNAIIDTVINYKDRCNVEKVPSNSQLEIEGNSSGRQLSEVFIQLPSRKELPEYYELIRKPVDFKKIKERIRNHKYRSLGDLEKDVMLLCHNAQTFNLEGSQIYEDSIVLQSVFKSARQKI
Description: as §1

SMARCA4 = SMARCA4 (Homo sapiens (Human), UniProt P51532); assay: DSF selectivity profiling; type: binding
SMARCA4, sequence (P51532 1453-1564): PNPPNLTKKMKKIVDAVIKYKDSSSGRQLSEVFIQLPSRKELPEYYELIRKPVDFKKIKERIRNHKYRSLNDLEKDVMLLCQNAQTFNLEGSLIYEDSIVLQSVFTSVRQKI
Description: as §1

TRIM33A = TRIM33A (Homo sapiens (Human), UniProt Q9UPN9); assay: DSF selectivity profiling; type: binding
TRIM33A, sequence (Q9UPN9 957-1080): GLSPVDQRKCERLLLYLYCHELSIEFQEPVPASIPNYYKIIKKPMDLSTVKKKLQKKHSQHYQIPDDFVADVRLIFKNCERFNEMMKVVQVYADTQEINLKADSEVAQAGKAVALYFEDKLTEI
Description: as §1

p300 = p300 (Homo sapiens (Human), UniProt Q09472); assay: DSF selectivity profiling; type: binding
p300, sequence (Q09472 1049-1156): as the sequence (Q92793 1085-1192) above, with N47S, V73I, F93Y, A98S counted along it
Description: as §1

PBRM1-BD5 = PBRM1-BD5 (Homo sapiens (Human), UniProt Q86U86); conditions: DSF
PBRM1-BD5, sequence (Q86U86 653-763): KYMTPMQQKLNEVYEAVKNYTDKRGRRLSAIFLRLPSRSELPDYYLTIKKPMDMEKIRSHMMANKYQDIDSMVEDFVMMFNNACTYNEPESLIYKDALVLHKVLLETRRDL

PBRM1-BD2 [2] = molecular target: T1, PBRM1-BD2; assay: biochemical; type: binding; conditions: read-out: Kd
Description: Protein-detected NMR-based fragment screening has the advantage of providing information about both binding affinity and the amino acid residues involved in binding.
NMR spectroscopy. Automated NMR data collection was performed on ^15N-labeled PBRM1-BD2 (50 μM) by using ^1H,^15N SOFAST-HMQC experiments. […] The total time for screening 85 or 82 samples each containing 12 fragments or DMSO by ^1H,^15N SOFAST-HMQC was 46 h (˜32 min/sample). […] All NMR data were processed using NMRPipe^4 in NMRbox.^5 Spectra were processed by using in-house automated Python scripts in NMRPipe,^4 and chemical shifts perturbation were analyzed using SPARKY.^6 Total ^1H/^15N chemical shift perturbations and equilibrium dissociation constants (Kd) were calculated as reported.^2

PC3 cells = assay: Cell viability assay (CellTiter-Glo); type: cell-based, human; conditions: 10, 1 and 0.1 μM
Description: (§2) Cell Viability Assays. Cells were seeded in a 96-well plate and incubated for 12-24 h prior to initial treatment. The number of cells per well was chosen empirically based on cell growth rates (LNCaP-5,000 cells/well, PC3 and RWPE-1-3,000 cells per well, HEK293T-1,000 cells/well). Cells were treated with either DMSO control or serial dilutions of inhibitors and media with compound was refreshed every 48 h.

PBRM1-BD2 [3] = molecular target: T1, PBRM1-BD2; assay: AlphaScreen competition assay, His6-tagged PBRM1-BD2 and biotinylated H3K14ac peptide; type: binding; conditions: 0.2 μM His6-PBRM1-BD2, 0.1 μM biotinylated H3K14ac peptide
RWPE-1 cells = assay: Cell viability assay (CellTiter-Glo); type: cell-based, human; conditions: 10, 1 and 0.1 μM
Description: as §2

[4] = read-out: PBRM1-BD2 ΔTm, DSF, 10 μM protein, 100 μM inhibitor, vs apoprotein

Row | SMILES | ΔTm at 100 µM (PBRM1-BD2 [1]; [4]) [°C] | ASH1L ΔTm (ASH1L) | BRD2-BD2 ΔTm (BRD2-BD2) [°C] | BRD3-BD1 ΔTm (BRD3-BD1) [°C] | BRD3-BD2 ΔTm (BRD3-BD2) [°C] | BRD4-BD1 ΔTm (BRD4-BD1) [°C] | BRD4-BD2 ΔTm (BRD4-BD2) [°C] | BRD7 ΔTm (BRD7) [°C] | BRDT-BD1 ΔTm (BRDT-BD1) [°C] | CECR2 ΔTm (CECR2) [°C] | CREBBP ΔTm (CREBBP) [°C] | PCAF ΔTm (PCAF) [°C] | SMARCA2 ΔTm (SMARCA2) [°C] | TRIM33A ΔTm (TRIM33A) [°C] | p300 ΔTm (p300) [°C] | also measured
1 | CN(C)/C=C1\CCn2c1nc(=O)c1c(Cl)cccc12 [Compound 2, (E)-6-Chloro-3-((dimethylamino)methylene)-2,3-dihydropyrrolo[1,2-a]quinazolin-5(1H)-one, reference compound] | 3.3 ± 0.4 | −0.7 °C | −0.2 | 0.1 | 0.5 | 0.1 | −0.6 | 1.2 | −0.1 | 2.0 | 0.1 | −0.2 | 2.2 | −0.9 | −0.6 | PBRM1-BD1 ΔTm (PBRM1-BD1): −0.1 °C; PBRM1-BD3 ΔTm (PBRM1-BD3): 2.6 °C; PBRM1-BD4 ΔTm (PBRM1-BD4): 0.3 °C; PBRM1-BD6 ΔTm (PBRM1-BD6): −1.4 °C; SMARCA4 ΔTm (SMARCA4): 2 °C; PBRM1-BD5 ΔTm (PBRM1-BD5): 7.7 °C
2 | NC(=S)c1ccc(F)cc1 [Compound 6h] |  |  |  |  |  |  |  |  |  |  |  |  |  |  |  | Kd (PBRM1-BD2 [2]): > 2000 µM
3 | COc1cccc(OCC(F)(F)F)c1C#N [Compound 6i] |  |  |  |  |  |  |  |  |  |  |  |  |  |  |  | Kd (PBRM1-BD2 [2]): > 2000 µM
4 | N#Cc1ncccc1N1CCCCC1 [Compound 6j] |  |  |  |  |  |  |  |  |  |  |  |  |  |  |  | Kd (PBRM1-BD2 [2]): > 2000 µM
5 | CCC(/C=C1\CCn2c1nc(=O)c1c(Cl)cccc12)CC [Compound 7, (E)-6-Chloro-3-(2-ethylbutylidene)-2,3-dihydropyrrolo[1,2-a]quinazolin-5(1H)-one, reference compound] | 7.7 |  | 0.6 | −0.3 | 0.4 | −0.2 | −1.1 | 0.4 | −0.8 | −0.9 | −0.7 | 0.4 | 3.0 | 0.3 | −0.5 | PBRM1-BD2 ΔTm (PBRM1-BD2 [1]): > 7.5 °C; PBRM1-BD1 ΔTm (PBRM1-BD1): −0.9 °C; PBRM1-BD3 ΔTm (PBRM1-BD3): 2.8 °C; PBRM1-BD4 ΔTm (PBRM1-BD4): 3.9 °C; PBRM1-BD6 ΔTm (PBRM1-BD6): −1.5 °C; SMARCA4 ΔTm (SMARCA4): 3.1 °C; growth inhibition of PC3 cells (PC3 cells): more significant inhibition of PBRM1-independent prostate cancer cell line PC3; PBRM1-BD5 ΔTm (PBRM1-BD5): 11.0 °C
6 | CCC(/C=C1\CCn2c1nc(=O)c1ccccc12)CC [Compound 8, (E)-3-(2-Ethylbutylidene)-2,3-dihydropyrrolo[1,2-a]quinazolin-5(1H)-one, reference compound] |  | did not show binding |  |  |  |  |  |  |  |  |  |  |  |  |  | 
7 | O=C1NC(c2c(F)cccc2Cl)Nc2cccc(Cl)c21 (centres unmarked) [Compound 11, 5-Chloro-2-(2-chloro-6-fluorophenyl)-2,3-dihydroquinazolin-4(1H)-one] | 4.4 ± 0.4 |  |  |  |  |  |  |  |  |  |  |  |  |  |  | 
8 | Cc1cccc(C)c1C1NC(=O)c2c(Cl)cccc2N1 (centres unmarked) [Compound 26, 5-Chloro-2-(2,6-dimethylphenyl)-2,3-dihydroquinazolin-4(1H)-one] |  | −0.8 °C | 0.5 | 0.0 | 0.3 | 0 | −4.4 | 0.1 | −0.6 | 1.3 | 0.2 | 0.6 | 0.5 | 0.5 | 0.2 | 
9 | COc1cccc2c1C(=O)NC(c1ccccc1C)N2 (centres unmarked) [Compound 31, 5-Methoxy-2-(2-methylphenyl)-2,3-dihydroquinazolin-4(1H)-one] | 0 |  |  |  |  |  |  |  |  |  |  |  |  |  |  | IC50 (PBRM1-BD2 [3]): > 70 µM
10 | Cc1cccc(C2NC(=O)c3c(Br)cccc3N2)c1 (centres unmarked) [Compound 34, 5-Bromo-2-(3-methylphenyl)-2,3-dihydroquinazolin-4(1H)-one] | > 6.2 | −0.4 °C | 0.5 | 0.4 | 0.5 | 0.3 | −1.1 | −0.4 | −0.4 | −0.6 | −0.2 | 0.6 | 0.3 | 0.1 | −0.1 | PBRM1-BD2 ΔTm (PBRM1-BD2 [1]): 6.4 °C and 6.4 ± 0.2 °C; PBRM1-BD1 ΔTm (PBRM1-BD1): 1.4 °C; PBRM1-BD3 ΔTm (PBRM1-BD3): 0.6 °C; PBRM1-BD4 ΔTm (PBRM1-BD4): 0.2 °C; PBRM1-BD6 ΔTm (PBRM1-BD6): −2.4 °C; SMARCA4 ΔTm (SMARCA4): −0.2 °C; growth inhibition of PC3 cells (PC3 cells): do not inhibit the growth of PC3 and RWPE1 at tested concentrations; growth inhibition of RWPE1 cells (RWPE-1 cells): do not inhibit the growth of PC3 and RWPE1 at tested concentrations; PBRM1-BD5 ΔTm (PBRM1-BD5): ~1.5 °C
11 | O=C(O)c1ccccc1Nc1cc(Cl)ccc1C(=O)O [Compound 37, 2-((2-Carboxyphenyl)amino)-4-chlorobenzoic acid] |  |  |  |  |  |  |  |  |  |  |  |  |  |  |  | IC50 (PBRM1-BD2 [3]): > 250 µM; ΔTm at 100 µM (PBRM1-BD2 [1]; read-out: PBRM1-BD2 ΔTm): 0.3 ± 0.02 °C
12 | O=C(O)c1ccc(Cl)c2c(=O)c3ccccc3[nH]c12 [Compound 38, 1-Chloro-9-oxo-9,10-dihydroacridine-4-carboxylic acid] | 0 |  |  |  |  |  |  |  |  |  |  |  |  |  |  | IC50 (PBRM1-BD2 [3]): > 250 µM
